# Test results published in the supplement of paper PMC10307832.
# Columns and labels:
# Experiment in all cases: relative viability (nuclei count vs DMSO), 5 days (fraction); higher = more cells survive
# NCI-H1666 = test system: NCI-H1666
# Method in brief: (§1)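 Relative viability divides the nuclei count in treated wells by that in vehicle wells. Lung cancer cell lines were seeded in 1536-well plates, dosed by pin tool the next day, and fixed and stained after 5 days in one step with final 0.05% Triton X-100, 1% formaldehyde and 1 ug/ml Hoechst. Dosing was a single drug or a fixed anchor-drug dose plus five library-drug doses (not always all listed) in √10 steps, and values are medians of duplicate plates imaged at 4×.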
# NCI-H2347 = test system: NCI-H2347
# Method in brief: as §1
# NCI-H650 = test system: NCI-H650
# Method in brief: as §1
# NCI-H661 = test system: NCI-H661
# Method in brief: as §1
# LCLC-97TM1 = test system: LCLC-97TM1
# Method in brief: as §1
# HCC-827 = test system: HCC-827
# Method in brief: as §1
# COR-L 105 = test system: COR-L 105
# Method in brief: as §1
# 201T = test system: 201T
# Method in brief: as §1
# NCI-H2126 = test system: NCI-H2126
# Method in brief: as §1
# NCI-H2087 = test system: NCI-H2087
# Method in brief: as §1
# NCI-H520 = test system: NCI-H520
# Method in brief: as §1
# ChaGo-K-1 = test system: ChaGo-K-1
# Method in brief: as §1
# LC-2-ad = test system: LC-2-ad
# Method in brief: as §1
# H3255 = test system: H3255
# Method in brief: as §1
# NCI-H2405 = test system: NCI-H2405
# Method in brief: as §1
# PC-14 = test system: PC-14
# Method in brief: as §1
# NCI-H647 = test system: NCI-H647
# Method in brief: as §1
# EPLC-272H = test system: EPLC-272H
# Method in brief: as §1
# NCI-H23 = test system: NCI-H23
# Method in brief: as §1
# RERF-LC-KJ = test system: RERF-LC-KJ
# Method in brief: as §1
# HCC-78 = test system: HCC-78
# Method in brief: as §1
# NCI-H1915 = test system: NCI-H1915
# Method in brief: as §1
smiles,measurement,setting,value
Nc1ccn([C@@H]2O[C@H](CO)[C@@H](O)[C@@H]2O)c(=O)n1 [Cytarabine] + N=C(N)NC(=N)NCCc1ccccc1 [Phenformin] (partner 250 µM),relative viability,NCI-H1666; first compound 0.005 µM,0.545
same,relative viability,NCI-H1666; first compound 0.01581 µM,0.669
same,relative viability,NCI-H1666; first compound 0.05 µM,0.466
same,relative viability,NCI-H1666; first compound 0.1581 µM,0.401
same,relative viability,NCI-H1666; first compound 0.5 µM,0.396
same,relative viability,NCI-H2347; first compound 0.005 µM,0.381
same,relative viability,NCI-H2347; first compound 0.01581 µM,0.383
same,relative viability,NCI-H2347; first compound 0.05 µM,0.296
same,relative viability,NCI-H2347; first compound 0.1581 µM,0.273
same,relative viability,NCI-H2347; first compound 0.5 µM,0.291
same,relative viability,NCI-H650; first compound 0.005 µM,0.448
same,relative viability,NCI-H650; first compound 0.01581 µM,0.33
same,relative viability,NCI-H650; first compound 0.05 µM,0.185
same,relative viability,NCI-H650; first compound 0.1581 µM,0.194
same,relative viability,NCI-H650; first compound 0.5 µM,0.187
same,relative viability,NCI-H661; first compound 0.005 µM,0.264
same,relative viability,NCI-H661; first compound 0.01581 µM,0.254
same,relative viability,NCI-H661; first compound 0.05 µM,0.239
same,relative viability,NCI-H661; first compound 0.1581 µM,0.23
same,relative viability,NCI-H661; first compound 0.5 µM,0.237
same,relative viability,LCLC-97TM1; first compound 0.005 µM,0.426
same,relative viability,LCLC-97TM1; first compound 0.01581 µM,0.34
same,relative viability,LCLC-97TM1; first compound 0.05 µM,0.354
same,relative viability,LCLC-97TM1; first compound 0.1581 µM,0.201
same,relative viability,LCLC-97TM1; first compound 0.5 µM,0.168
same,relative viability,HCC-827; first compound 0.005 µM,0.321
same,relative viability,HCC-827; first compound 0.01581 µM,0.258
same,relative viability,HCC-827; first compound 0.05 µM,0.195
same,relative viability,HCC-827; first compound 0.1581 µM,0.141
same,relative viability,HCC-827; first compound 0.5 µM,0.158
same,relative viability,COR-L 105; first compound 0.005 µM,0.428
same,relative viability,COR-L 105; first compound 0.01581 µM,0.504
same,relative viability,COR-L 105; first compound 0.05 µM,0.43
same,relative viability,COR-L 105; first compound 0.1581 µM,0.29
same,relative viability,COR-L 105; first compound 0.5 µM,0.259
same,relative viability,201T; first compound 0.005 µM,0.369
same,relative viability,201T; first compound 0.01581 µM,0.432
same,relative viability,201T; first compound 0.05 µM,0.428
same,relative viability,201T; first compound 0.1581 µM,0.352
same,relative viability,201T; first compound 0.5 µM,0.356
same,relative viability,NCI-H2126; first compound 0.005 µM,0.472
same,relative viability,NCI-H2126; first compound 0.01581 µM,0.464
same,relative viability,NCI-H2126; first compound 0.05 µM,0.421
same,relative viability,NCI-H2126; first compound 0.1581 µM,0.277
same,relative viability,NCI-H2126; first compound 0.5 µM,0.271
same,relative viability,NCI-H2087; first compound 0.005 µM,0.384
same,relative viability,NCI-H2087; first compound 0.01581 µM,0.308
same,relative viability,NCI-H2087; first compound 0.05 µM,0.373
same,relative viability,NCI-H2087; first compound 0.1581 µM,0.229
same,relative viability,NCI-H2087; first compound 0.5 µM,0.131
same,relative viability,NCI-H520; first compound 0.005 µM,0.558
same,relative viability,NCI-H520; first compound 0.01581 µM,0.314
same,relative viability,NCI-H520; first compound 0.05 µM,0.658
same,relative viability,NCI-H520; first compound 0.1581 µM,0.383
same,relative viability,NCI-H520; first compound 0.5 µM,0.323
same,relative viability,ChaGo-K-1; first compound 0.005 µM,0.421
same,relative viability,ChaGo-K-1; first compound 0.01581 µM,0.342
same,relative viability,ChaGo-K-1; first compound 0.05 µM,0.323
same,relative viability,ChaGo-K-1; first compound 0.1581 µM,0.176
same,relative viability,ChaGo-K-1; first compound 0.5 µM,0.181
same,relative viability,LC-2-ad; first compound 0.005 µM,0.454
same,relative viability,LC-2-ad; first compound 0.01581 µM,0.466
same,relative viability,LC-2-ad; first compound 0.05 µM,0.49
same,relative viability,LC-2-ad; first compound 0.1581 µM,0.344
same,relative viability,LC-2-ad; first compound 0.5 µM,0.261
same,relative viability,H3255; first compound 0.005 µM,0.301
same,relative viability,H3255; first compound 0.01581 µM,0.336
same,relative viability,H3255; first compound 0.05 µM,0.296
same,relative viability,H3255; first compound 0.1581 µM,0.25
same,relative viability,H3255; first compound 0.5 µM,0.273
same,relative viability,NCI-H2405; first compound 0.005 µM,0.387
same,relative viability,NCI-H2405; first compound 0.01581 µM,0.34
same,relative viability,NCI-H2405; first compound 0.05 µM,0.288
same,relative viability,NCI-H2405; first compound 0.1581 µM,0.238
same,relative viability,NCI-H2405; first compound 0.5 µM,0.258
same,relative viability,PC-14; first compound 0.005 µM,0.499
same,relative viability,PC-14; first compound 0.01581 µM,0.316
same,relative viability,PC-14; first compound 0.05 µM,0.259
same,relative viability,PC-14; first compound 0.1581 µM,0.0817
same,relative viability,PC-14; first compound 0.5 µM,0.0908
same,relative viability,NCI-H647; first compound 0.005 µM,0.181
same,relative viability,NCI-H647; first compound 0.01581 µM,0.204
same,relative viability,NCI-H647; first compound 0.05 µM,0.193
same,relative viability,NCI-H647; first compound 0.1581 µM,0.0662
same,relative viability,NCI-H647; first compound 0.5 µM,0.0608
same,relative viability,EPLC-272H; first compound 0.005 µM,0.249
same,relative viability,EPLC-272H; first compound 0.01581 µM,0.277
same,relative viability,EPLC-272H; first compound 0.05 µM,0.26
same,relative viability,EPLC-272H; first compound 0.1581 µM,0.147
same,relative viability,EPLC-272H; first compound 0.5 µM,0.214
same,relative viability,NCI-H23; first compound 0.005 µM,0.784
same,relative viability,NCI-H23; first compound 0.01581 µM,0.649
same,relative viability,NCI-H23; first compound 0.05 µM,0.721
same,relative viability,NCI-H23; first compound 0.1581 µM,0.367
same,relative viability,NCI-H23; first compound 0.5 µM,0.156
same,relative viability,RERF-LC-KJ; first compound 0.005 µM,0.381
same,relative viability,RERF-LC-KJ; first compound 0.01581 µM,0.369
same,relative viability,RERF-LC-KJ; first compound 0.05 µM,0.308
same,relative viability,RERF-LC-KJ; first compound 0.1581 µM,0.298
same,relative viability,RERF-LC-KJ; first compound 0.5 µM,0.274
same,relative viability,HCC-78; first compound 0.005 µM,0.8
same,relative viability,HCC-78; first compound 0.01581 µM,0.629
same,relative viability,HCC-78; first compound 0.05 µM,0.466
same,relative viability,HCC-78; first compound 0.1581 µM,0.363
same,relative viability,HCC-78; first compound 0.5 µM,0.366
same,relative viability,NCI-H1915; first compound 0.005 µM,0.324
same,relative viability,NCI-H1915; first compound 0.01581 µM,0.328
same,relative viability,NCI-H1915; first compound 0.05 µM,0.329
same,relative viability,NCI-H1915; first compound 0.1581 µM,0.268
same,relative viability,NCI-H1915; first compound 0.5 µM,0.245
